The text below walks through data of publication PMC9699089 (Pathogens, 2022).

The target of data set [1] is G-rich unfolded single-stranded sequence 24nonG4. The experiment in a line: Native electrospray mass spectrometry, 24nonG4. The format is binding. Also on record: key to Kd 24nonG4, stoichiometry 2 (Kd2) / Kd 24nonG4, stoichiometry 1 (Kd1): n.b.: no binding detected; <LOQ: binding detected but below limit of quantitation. The following applies: 100 mM TMAA, 1 mM KCl; for Kd: read-out: Kd 24nonG4, stoichiometry 1 (Kd1); for Kd 24nonG4, stoichiometry 2 (Kd2): 2:1 ligand:DNA complex. Here is the method:
Oligonucleotides were purchased in the lyophilized form from Eurogentec (RP-cartridge purification), and dissolved at 1 mM in pure water. TMAA (1 M) was purchased from Santa Cruz Biotechnology and potassium chloride (purity > 99.99%) from Sigma Aldrich (Sigma Aldrich, Saint-Quentin-Fallavier, France). The sample solutions contained 10 µM oligonucleotide and 10 (for CD only) or 20 µM ligand, in a 100 mM TMAA, 1mM KCl buffer. The solutions were incubated overnight at 4 °C before analysis.
The sample solutions were injected at a 10 µM strand concentration on an Agilent 6560 DTIMS-Q-TOF instrument (Agilent Technologies, Santa Clara, CA, USA), equipped with a dual-ESI source operated in the negative ion mode in soft conditions. The following parameters were used: fragmentor 320 V, trap fill time 1000 µs, trap release time 200 µs, trap entrance grid delta 2 V. The drift tube was filled with helium and the pressure was fixed at 3.89 ± 0.01 Torr (measured by a capacitance diaphragm gauge CDG-500, Agilent Technologies).
The MS data were extracted using the IM-MS Browser (v. B.08.00; Agilent Technologies). The peak area intensity of each species at the 5- charge state was extracted from their corresponding m/z range (encompassing potassium adducts), and baseline subtracted. The concentrations of all species (free DNA, free ligands, and complexes) and corresponding dissociation constants were determined as previously described.

Data set [2] in a line: Cytotoxicity evaluation, MTT assay. To be noted: human. The format is cell-based, human. A digest of the protocol: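 MTT read-out in duplicate; wells checked for precipitate, then MTT 0.5 mg/mL in FCS-free medium added, formazan dissolved in DMSO and absorbance read at 570 nm (630 nm reference). Viability expressed as percentage of untreated cells; CC50 derived from dose-response curve.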
(In general: Tetrazolium dyes change colour on reduction, which living cells bring about.)

For orientation: Kd means the constant that tells how readily two partners part at equilibrium. In general, CC50 refers to the concentration at which the toxic effect on the cells reaches its halfway point. On to `CN(C)CCCCNCc1cc(-c2ccccc2)c2ccc3c(-c4ccccc4)cc(CNCCCCN(C)C)nc3c2n1` [Compound 1c, 2,9-Bis[(4-dimethylaminobutyl)aminomethyl]-4,7-diphenyl-1,10-phenanthroline], for which the dissociation constant Kd in data set [1] (1:1 ligand:DNA complex) is 9 µM. Besides, the “Kd 24nonG4, stoichiometry 2 (Kd2)” value in data set [1] is “<LOQ”. In addition, the CC50 at 72 h in data set [2] was 10.4 ± 0.7 µM.

Consider `CN(C)CCCCCNCc1cc(-c2ccccc2)c2ccc3c(-c4ccccc4)cc(CNCCCCCN(C)C)nc3c2n1` [Compound 1d, 2,9-Bis[(5-dimethylaminopentyl)aminomethyl]-4,7-diphenyl-1,10-phenanthroline], for which the Kd in data set [1] (1:1 ligand:DNA complex) came to 11 µM. Moreover, the “Kd 24nonG4, stoichiometry 2 (Kd2)” value in data set [1] was “<LOQ”. The same compound returned a CC50 at 72 h in data set [2] of 3.35 ± 0.33 µM.

As for `c1ccc(-c2cc(CNCCCN3CCCC3)nc3c2ccc2c(-c4ccccc4)cc(CNCCCN4CCCC4)nc23)cc1` [Compound 1l], the Kd in data set [1] (1:1 ligand:DNA complex) amounted to 8 µM. Besides, the “Kd 24nonG4, stoichiometry 2 (Kd2)” value in data set [1] was “<LOQ”. Further, the CC50 at 72 h in data set [2] is 15.2 ± 1.56 µM.

Regarding `c1ccc(-c2cc(CNCCc3ccccn3)nc3c2ccc2c(-c4ccccc4)cc(CNCCc4ccccn4)nc23)cc1` [Compound 1m], in data set [1] (1:1 ligand:DNA complex), the “Kd 24nonG4, stoichiometry 1 (Kd1)” value was “n.b”. In data set [2], this compound displayed a CC50 at 72 h of 4.34 ± 0.31 µM.
